Source: ChEMBL document CHEMBL5550106, “Recent advances in the exploration of oxazolidinone scaffolds from compound development to antibacterial agents and other bioactivities” (Eur J Med Chem, 2024)
≈ marks a conversion by molar mass, not a printed value.

Assays:
Haemophilus influenzae = experiment: Antibacterial activity against Haemophilus influenzae assessed as bacterial growth inhibition measured after 16 to 24 hrs by broth microdilution assay; type: functional; details: time 16-24 hrs
[1] = test system: Staphylococcus epidermidis; experiment: Antibacterial activity against Methicillin-resistant Staphylococcus epidermidis assessed as inhibition of bacterial growth; type: functional
Staphylococcus aureus [2] = experiment: Antibacterial activity against Methicillin-resistant Staphylococcus aureus assessed as inhibition of bacterial growth; type: functional
Coagulation factor X = Coagulation factor X (Homo sapiens, UniProt P00742); experiment: Inhibition of human factor Xa
Escherichia coli [3] = experiment: Antibacterial activity against efflux pump-efficient Escherichia coli MG1655 assessed as bacterial growth inhibition; type: functional
Staphylococcus aureus [4] = experiment: Antibacterial activity against Staphylococcus aureus assessed as reduction in bacterial growth incubated for 24 hrs by broth microdilution method; type: functional
Escherichia coli [5] = experiment: Antimicrobial activity against wild type Escherichia coli MG1655 assessed as inhibition of microbial growth; type: functional
Escherichia coli [6] = experiment: Antibacterial activity against Escherichia coli MG1655 in presence of polymyxin B nonapeptide; type: functional
[7] = test system: Staphylococcus epidermidis; experiment: Antibacterial activity against linezolid-resistant Staphylococcus epidermidis assessed as reduction in bacterial growth; type: functional
[8] = test system: Staphylococcus epidermidis; experiment: Antibacterial activity against Methicillin-resistant Staphylococcus epidermidis assessed as bacterial growth inhibition; type: functional
[9] = test system: Staphylococcus epidermidis; experiment: Antibacterial activity against Staphylococcus epidermidis assessed as reduction in microbial growth after 24 hrs by CLSI based microdilution method; type: functional
Staphylococcus aureus [10] = experiment: Antibacterial activity against Linezolid-resistant Staphylococcus aureus assessed as reduction in bacterial growth; type: functional
Staphylococcus aureus [11] = experiment: Antibacterial activity against Staphylococcus aureus assessed as reduction in microbial growth by CLSI based broth microdilution method; type: functional
Staphylococcus aureus [12] = experiment: Antibacterial activity against methicillin-resistant Staphylococcus aureus assessed as reduction in microbial growth by CLSI based broth microdilution method; type: functional
[13] = Intrinsic clearance in mouse liver microsomes; type: ADME, Microsome; details: read-out: CLH
Staphylococcus aureus [14] = experiment: Antibacterial activity against methicillin-sensitive Staphylococcus aureus assessed as reduction in microbial growth by CLSI based broth microdilution method; type: functional
[15] = test system: Mycobacterium tuberculosis; experiment: Antibacterial activity against Mycobacterium tuberculosis H37Rv assessed as inhibition of bacterial growth; type: functional
Staphylococcus aureus [16] = experiment: Antibacterial activity against Staphylococcus aureus HG001 assessed as reduction in bacterial cell growth incubated for 16 to 18 hrs by two-fold serial dilution method; type: functional; details: time 16-18 hrs
Pseudomonas aeruginosa [17] = experiment: Antibacterial activity against wild-type Pseudomonas aeruginosa PAO1 incubated for 24 hrs by broth microdilution method; type: functional
Pseudomonas aeruginosa [18] = experiment: Antibacterial activity against Pseudomonas aeruginosa PAO1 assessed as bacterial growth inhibition incubated for 24 hrs by microtiter plate reader analysis; type: functional

Chain of Coagulation factor X (P00742 41-179 limits assumed): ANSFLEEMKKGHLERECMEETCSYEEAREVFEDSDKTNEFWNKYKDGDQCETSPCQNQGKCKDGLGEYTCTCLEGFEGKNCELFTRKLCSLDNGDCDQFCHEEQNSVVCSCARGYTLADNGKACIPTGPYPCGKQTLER
Chain of Coagulation factor X (P00742 235-488 limits assumed): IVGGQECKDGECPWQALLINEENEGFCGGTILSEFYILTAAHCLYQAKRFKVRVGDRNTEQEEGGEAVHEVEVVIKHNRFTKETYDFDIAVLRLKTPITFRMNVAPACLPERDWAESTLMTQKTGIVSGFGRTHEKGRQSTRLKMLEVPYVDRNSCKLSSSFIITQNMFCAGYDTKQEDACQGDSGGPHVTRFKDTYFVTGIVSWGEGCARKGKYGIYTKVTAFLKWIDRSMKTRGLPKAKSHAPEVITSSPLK

Structure (SMILES)	IC50 (Coagulation factor X)	MIC [7]	MIC [8]	MIC [9]	MIC (Staphylococcus aureus [10])	MIC (Staphylococcus aureus [11])	MIC (Staphylococcus aureus [12])	also measured
C[S+]([O-])c1ccc(N2CC(CCl)OC2=O)cc1 (stereo not drawn)								MIC (Haemophilus influenzae): 16 µg/mL (≈ 58.4 µM)
CC(=O)NC[C@H]1CN(c2ccc([S+](C)[O-])cc2)C(=O)O1 (stereo partly drawn)								MIC [1]: 1 µg/mL (≈ 3.37 µM); MIC (Staphylococcus aureus [2]): 1 µg/mL (≈ 3.37 µM)
O=C(NC[C@@H]1OC(=O)N2c3ccc(N4CCOCC4=O)cc3OC[C@@H]12)c1ccc(Cl)s1	3 nM							
O=C(NC[C@@H]1OC(=O)N2c3ccc(N4CCOCC4=O)cc3OC[C@H]12)c1ccc(Cl)s1	50 nM							
CC(=O)N(C)c1ccc2c(c1)OC[C@H]1[C@H](CNC(=O)c3ccc(Cl)s3)OC(=O)N21	2210 nM							
O=C(NC[C@@H]1OC(=O)N2c3ccc(N4CCOC4=O)cc3OC[C@@H]12)c1ccc(Cl)s1	15700 nM							
CS(=O)(=O)c1ccccc1-c1ccc2c(c1)OC[C@H]1[C@H](CNC(=O)c3ccc(Cl)s3)OC(=O)N21	30 nM							
O=C(NC[C@@H]1OC(=O)N2c3ccc(N4CCOCC4=O)cc3SC[C@@H]12)c1ccc(Cl)s1	2 nM							
O=C(NC[C@@H]1OC(=O)N2c3ccc(N4CCCCC4=O)cc3SC[C@@H]12)c1ccc(Cl)s1	4 nM							
O=C(NC[C@@H]1OC(=O)N2c3ccc(N4CCOCC4=O)cc3[S+]([O-])C[C@@H]12)c1ccc(Cl)s1 (stereo partly drawn)	60 nM							
O=C(NC[C@@H]1OC(=O)N2c3ccc(N4CCOCC4=O)cc3S(=O)(=O)C[C@@H]12)c1ccc(Cl)s1	20 nM							
O=C(NC[C@@H]1OC(=O)N2c3ccc(N4CCOCC4=O)cc3CC[C@@H]12)c1ccc(Cl)s1	4 nM							
O=C(NC[C@@H]1OC(=O)N2c3ccc(N4CCCCC4=O)cc3CC[C@@H]12)c1ccc(Cl)s1	6 nM							
O=C(NC[C@@H]1OC(=O)N2c3ccc(N4CCOCC4=O)cc3NC[C@@H]12)c1ccc(Cl)s1	5 nM							
NCc1ncc(-c2ccc(N3C[C@H](CO)OC3=O)cc2F)cc1O								MIC (Escherichia coli [3]): 32 µg/mL (≈ 96 µM); MIC (Staphylococcus aureus [4]): 20 µg/mL (≈ 60 µM); MIC (Escherichia coli [5]): 51 µg/mL; MIC (Escherichia coli [6]): 32 µg/mL
NCc1cc(F)c(-c2ccc(N3C[C@H](CO)OC3=O)cc2F)cc1O								MIC (Escherichia coli [3]): 64 µg/mL (≈ 183 µM); MIC (Staphylococcus aureus [4]): 32 µg/mL (≈ 91.3 µM); MIC (Escherichia coli [5]): 64 µg/mL; MIC (Escherichia coli [6]): 32 µg/mL
COC(=O)C1(C(=O)OC)Cc2cc(-c3ccc(N4C[C@H](CO)OC4=O)cc3F)ccc2N2CCOCC21 (stereo partly drawn)		> 32 µg/mL	8 µg/mL (≈ 15.5 µM)	8 µg/mL	> 32 µg/mL	16 µg/mL	8 µg/mL	
CC(=O)NC[C@H]1CN(c2ccc(-c3ccc4c(c3)CC3(C(=O)NC(=O)NC3=O)C3CCCCN43)c(F)c2)C(=O)O1 (stereo partly drawn)		> 32 µg/mL	< 1 µg/mL	2 µg/mL	16 µg/mL (≈ 29.1 µM)	2 µg/mL	< 1 µg/mL	
COC(=O)NC[C@H]1CN(c2ccc(-c3ccc4c(c3)CC3(C(=O)NC(=O)NC3=O)C3CCCN43)c(F)c2)C(=O)O1 (stereo partly drawn)		32 µg/mL (≈ 58 µM)	2 µg/mL (≈ 3.63 µM)	2 µg/mL	32 µg/mL (≈ 58 µM)	2 µg/mL	2 µg/mL	
O=C1NC(=O)C2(Cc3cc(-c4ccc(N5C[C@H](CO)OC5=O)cc4F)ccc3N3CCOCC32)C(=O)N1 (stereo partly drawn)		32 µg/mL (≈ 62.7 µM)	2 µg/mL (≈ 3.92 µM)	4 µg/mL	32 µg/mL (≈ 62.7 µM)	8 µg/mL	4 µg/mL	

Structure (SMILES)	IC50 (Coagulation factor X)	MIC [7]	MIC [8]	MIC [9]	MIC (Staphylococcus aureus [10])	MIC (Staphylococcus aureus [11])	MIC (Staphylococcus aureus [12])	also measured
COC(=O)NC[C@H]1CN(c2ccc(-c3ccc4c(c3)CC3(C(=O)NC(=O)NC3=O)C3COCCN43)c(F)c2)C(=O)O1 (stereo partly drawn)		32 µg/mL (≈ 56.4 µM)	2 µg/mL (≈ 3.52 µM)	4 µg/mL	> 32 µg/mL	4 µg/mL	4 µg/mL	
O=C1NC(=O)C2(Cc3cc(-c4ccc(N5C[C@H](CO)OC5=O)cc4F)ccc3N3CCCCC32)C(=O)N1 (stereo partly drawn)		32 µg/mL (≈ 62.9 µM)	< 1 µg/mL	2 µg/mL	16 µg/mL (≈ 31.5 µM)	4 µg/mL	2 µg/mL	
COC(=O)C1(C(=O)OC)Cc2cc(-c3ccc(N4C[C@H](CNC(C)=O)OC4=O)cc3F)ccc2N2CCOCC21 (stereo partly drawn)		32 µg/mL (≈ 57.6 µM)	4 µg/mL (≈ 7.2 µM)	4 µg/mL	> 32 µg/mL	8 µg/mL	4 µg/mL	
CC(=O)NC[C@H]1CN(c2ccc(-c3ccc4c(c3)CC3(C(=O)NC(=O)NC3=O)C3CCCN43)c(F)c2)C(=O)O1 (stereo partly drawn)		32 µg/mL (≈ 59.8 µM)	< 1 µg/mL	2 µg/mL	16 µg/mL (≈ 29.9 µM)	2 µg/mL	2 µg/mL	
CC(=O)NC[C@H]1CN(c2ccc(-c3ccc4c(c3)CC3(C(=O)NC(=O)NC3=O)C3COCCN43)c(F)c2)C(=O)O1 (stereo partly drawn)		32 µg/mL (≈ 58 µM)	2 µg/mL (≈ 3.63 µM)	4 µg/mL	32 µg/mL (≈ 58 µM)	4 µg/mL	4 µg/mL	
CC(=O)NC[C@H]1CN(c2ccc(N3CCC(Nc4ccc(Br)cc4)CC3)c(F)c2)C(=O)O1								CLint scaled [13]: 3.46 mL/min/kg
C[C@H](NC(=O)[C@H](NC(=O)OCC1c2ccccc2-c2ccccc21)[C@H](C)OC(C)(C)C)[C@H]1CN(c2ccc(N3CCOCC3)c(F)c2)C(=O)O1								MIC (Staphylococcus aureus [14]): 6.25 µg/mL
CC(C)(C)C[C@@H](NC(=O)OCC1c2ccccc2-c2ccccc21)C(=O)N[C@@H](Cc1ccccc1)[C@H]1CN(c2ccc(N3CCOCC3)c(F)c2)C(=O)O1								MIC [15]: 1.9 µg/mL (≈ 2.59 µM)
O=C1NC(=O)C2(Cc3cc(-c4ccc(N5C[C@H](CO)OC5=O)cc4F)ccc3C3CCCCC32)C(=O)N1 (stereo partly drawn)		32 µg/mL (≈ 63.1 µM)	< 1 µg/mL	2 µg/mL	32 µg/mL (≈ 63.1 µM)	4 µg/mL	2 µg/mL	
CC(=O)NCC1CN(c2ccc(N3CCN(C(=O)CCOCCOCn4cc(CNC(=O)C(CCCCNC(=O)c5cccc(O)c5O)NC(=O)c5cccc(O)c5O)nn4)CC3)c(F)c2)C(=O)O1 (stereo not drawn)								MIC (Staphylococcus aureus [16]): > 64 µM
CC(=O)NCC1CN(c2ccc(N3CCN(C(=O)COn4cc(CNC(=O)C(CNC(=O)C(CNC(=O)CNC(=O)c5cccc(O)c5O)NC(=O)c5cccc(O)c5O)NC(=O)c5cccc(O)c5O)nn4)CC3)c(F)c2)C(=O)O1 (stereo not drawn)								MIC (Pseudomonas aeruginosa [17]): > 64 µM; MIC (Pseudomonas aeruginosa [18]): 16 µM (≈ 18 µg/mL)
CC(=O)NCC1CN(c2ccc(N3CCN(C(=O)COn4cc(CNC(=O)C(CCCCNC(=O)c5cccc(O)c5O)NC(=O)c5cccc(O)c5O)nn4)CC3)c(F)c2)C(=O)O1 (stereo not drawn)								MIC (Staphylococcus aureus [16]): > 64 µM
CC(=O)NC[C@H]1CN(c2ccc(-c3ccc4c(c3)CC3(C(=O)NCNC3=O)C3CCCCC43)c(F)c2)C(=O)O1 (stereo partly drawn)		> 32 µg/mL	4 µg/mL (≈ 7.48 µM)	8 µg/mL	> 32 µg/mL	8 µg/mL	8 µg/mL	
NS(=O)(=O)c1ccc(N2C[C@H](CO)OC2=O)cc1								MIC (Haemophilus influenzae): 16 µg/mL (≈ 58.8 µM)
CC(C)(C)Oc1ccc(C[C@H](NC(=O)OCC2c3ccccc3-c3ccccc32)C(=O)N[C@@H](Cc2ccccc2)[C@@H]2CN(c3ccc(N4CCOCC4)c(F)c3)C(=O)O2)cc1								MIC [15]: 12.5 µg/mL (≈ 15.1 µM)
O=C1O[C@@H](CO)CN1c1ccc(-c2ccc3c(c2)CC2(C(=O)NCNC2=O)C2CCCCC32)c(F)c1 (stereo partly drawn)		32 µg/mL (≈ 64.8 µM)	< 1 µg/mL	2 µg/mL	32 µg/mL (≈ 64.8 µM)	4 µg/mL	2 µg/mL	
CC(=O)NCC1CN(c2ccc(N3CCN(C(=O)CCOCCOCn4cc(CNC(=O)C(CNC(=O)C(CNC(=O)CNC(=O)c5cccc(O)c5O)NC(=O)c5cccc(O)c5O)NC(=O)c5cccc(O)c5O)nn4)CC3)c(F)c2)C(=O)O1 (stereo not drawn)								MIC (Pseudomonas aeruginosa [17]): > 64 µM; MIC (Pseudomonas aeruginosa [18]): 64 µM (≈ 76.8 µg/mL)
CC(=O)NC[C@H]1CN(c2ccc(C(C)=O)cc2)C(=O)O1 [DUP-721]								MIC [1]: 4 µg/mL (≈ 14.5 µM); MIC (Staphylococcus aureus [2]): 4 µg/mL (≈ 14.5 µM)
CC(=O)NC[C@H]1CN(c2ccc(N3CCOCC3)c(F)c2)C(=O)O1 [LINEZOLID]		> 32 µg/mL	2 µg/mL (≈ 5.93 µM)	2 µg/mL	> 32 µg/mL			MIC (Escherichia coli [3]): 11 µg/mL (≈ 32.6 µM); MIC (Staphylococcus aureus [4]): 3.1 µg/mL (≈ 9.19 µM); MIC (Pseudomonas aeruginosa [18]): 4 µM (≈ 1.35 µg/mL); MIC [15]: 1.56 µg/mL (≈ 4.62 µM); MIC (Escherichia coli [5]): 130 µg/mL; MIC (Escherichia coli [6]): 36 µg/mL
